Data taken from patent publication US20080254003A1, “Differentiation of Human Embryonic Stem Cells and Cardiomyocytes and Cardiomyocyte Progenitors Derived Therefrom” (priority 2004, published 2008).

Test system: HESC (hES2) co-cultured with END-2 cells
Assay: HESC-END-2 co-culture, scoring of beating areas
Assay type: cell-based, human
Conditions: 10^−4 M ascorbic acid, serum-free HESC-END-2 co-culture, day 12, 12-well plates, n=6
Protocol: END-2 cells and HESC lines hES2, hES3 and hES4 cells (passage number between 41-84) were cultured as described previously in Reubinoff B E, Pera M F, Fong C Y et al. Embryonic stem cell lines from human blastocysts: somatic differentiation in vitro. Nat Biotechnol 2000; 18:399-404 and Mummery C, Ward-van Oostwaard D, Doevendans P et al. Differentiation of human embryonic stem cells to cardiomyocytes: role of coculture with visceral endoderm-like cells. Circulation 2003; 107:2733-2740. To initiate co-cultures, END-2 cell cultures, treated for 3 hr with mitomycin C (mit.C; 10 μg/ml), replaced mouse embryonic fibroblasts (MEFs) as feeders for hES cells (Mummery et al (2003) and Mummery C L, van Achterberg T A, van den Eijnden-van Raaij A J et al. Visceral-endoderm-like cell lines induce differentiation of murine P19 embryonal carcinoma cells. Differentiation 1991; 46:51-60). As a control HESC were also grown on MEFs for the same period under the same culture conditions. In standard co-cultures, cells were grown in 12-well plates in DMEM containing L-glutamine, insulin-transferrin-selenium, non-essential amino acids, 90 μM β-mercaptoethanol, penicillin/streptomycin, and 20% FCS (Multicell, Wisent Inc, Canada). Co-cultures were then grown for up to 3 weeks and scored for the presence of areas of beating muscle from 5 days onwards. […]

**Q.** With `O=C1O[C@H]([C@@H](O)CO)C(O)=C1O` [ascorbic acid] as the molecule, how does the “increase in the number of beating areas compared to untreated serum-free co-cultures” value read?
**A.** 40%
